# Assay results published in patent US3995059A, “Pharmaceutical compositions containing fatty acid amide derivatives” (Sumitomo Chemical Company, Limited, priority 1966, dated 1976).
# Key:
# liver cholesterol = assay: Liver cholesterol (deposition of cholesterol and fat in the liver) of mice fed a cholesterol-rich diet (Table 1); type: in vivo; settings: 0.2% in diet, oral, 8 to 12 days
# [1] = test system: total cholesterol value in the blood serum; assay: Total cholesterol in blood serum of mice fed a diet enriched with cholesterol and bile acids (Table 1); type: in vivo; settings: 0.2% in diet, oral, 8 to 12 days
# Description: The effectiveness of the compounds was tested by using mice fed on a specific diet which was enriched with cholesterol and bile acids. […] The amide compound as well was mixed with the specific diet in an amount of 0.2%, and continuously administered orally for 8 to 12 days. Then the total cholesterol value in the blood serum of the animals was evaluated.
compound,measurement,setting,value
CCCCCCCCCCCCCCCC(=O)NC(C)c1ccccc1 (stereo not drawn) [drawing 11],Liver cholesterol,"liver cholesterol; experiment [II], control 3308",906 mg/100 g.
same,Serum cholesterol,"[1]; experiment [II], control 521",300 mg %
"CC/C=C\C/C=C\C/C=C\CCCCCCCC(=O)NC(C)c1ccccc1 (single isomer, unassigned; (+)) [(+) N-(α-Methylbenzyl)-linolenamide]",Liver cholesterol,"liver cholesterol; experiment [I], control 3585",784 mg/100 g.
same,Serum cholesterol,"[1]; experiment [I], control 546",269 mg %
CCCCCCCC/C=C\CCCCCCCC(=O)N(C1CCCCC1)C1CCCCC1,Liver cholesterol,"liver cholesterol; experiment [XI], control 3451",929 mg/100 g.
same,Serum cholesterol,"[1]; experiment [XI], control 595",309 mg %
CCCCC/C=C\C/C=C\CCCCCCCC(=O)NC(CC)c1ccc(C)cc1 (stereo not drawn) [drawing 24],Liver cholesterol,"liver cholesterol; experiment [IV], control 3145",908 mg/100 g.
same,Serum cholesterol,"[1]; experiment [IV], control 595",321 mg %
CC/C=C\C/C=C\C/C=C\CCCCCCCC(=O)NC(C)c1ccc(C)cc1 (stereo not drawn) [drawing 67],Liver cholesterol,"liver cholesterol; experiment [X], control 3293",1015 mg/100 g.
same,Serum cholesterol,"[1]; experiment [X], control 554",295 mg %
CCC(NC(=O)CCCCCCCCCCCCCCC(C)C)c1ccc(C(C)(C)C)cc1 (stereo not drawn),Liver cholesterol,"liver cholesterol; experiment [IV], control 3145",905 mg/100 g.
same,Serum cholesterol,"[1]; experiment [IV], control 595",297 mg %
CCCCCCCC/C=C\CCCCCCCC(=O)NC(C)c1ccc(Br)cc1 (racemic),Liver cholesterol,"liver cholesterol; experiment [XI], control 3451",1039 mg/100 g.
same,Serum cholesterol,"[1]; experiment [XI], control 595",299 mg %
CCCCCCCC/C=C\CCCCCCCC(=O)NC(CC)c1cccc([N+](=O)[O-])c1 (stereo not drawn) [drawing 82],Liver cholesterol,"liver cholesterol; experiment [XI], control 3451",1125 mg/100 g.
same,Serum cholesterol,"[1]; experiment [XI], control 595",315 mg %
CCCCCCCC/C=C\CCCCCCCC(=O)NC(C)c1ccc(CC)cc1 (stereo not drawn) [drawing 63],Liver cholesterol,"liver cholesterol; experiment [X], control 3293",1210 mg/100 g.
same,Serum cholesterol,"[1]; experiment [X], control 554",398 mg %
CC(C)CCCCCCCCCCCCCCC(=O)NC(Cc1ccccc1)c1ccccc1 (stereo not drawn) [d- iso-C17 H35 CO],Liver cholesterol,"liver cholesterol; experiment [V], control 2640",561 mg/100 g.
same,Serum cholesterol,"[1]; experiment [V], control 372",209 mg %
CC/C=C\C/C=C\C/C=C\CCCCCCCC(=O)NC(CC)c1ccc(OC)cc1 (racemic),Liver cholesterol,"liver cholesterol; experiment [XI], control 3451",1450 mg/100 g.
same,Serum cholesterol,"[1]; experiment [XI], control 595",325 mg %
CC/C=C\C/C=C\C/C=C\CCCCCCCC(=O)NC(C)c1cccc(Cl)c1 (racemic),Liver cholesterol,"liver cholesterol; experiment [XI], control 3451",1125 mg/100 g.
same,Serum cholesterol,"[1]; experiment [XI], control 595",309 mg %
"CCCCC/C=C\C/C=C\CCCCCCCC(=O)NC(CC)c1ccccc1 (single isomer, unassigned; (-)) [(-) (α-Ethylbenzyl)-linoleamide]",Liver cholesterol,"liver cholesterol; experiment [II], control 3308",821 mg/100 g.
same,Serum cholesterol,"[1]; experiment [II], control 521",251 mg %
CCCCCCCC/C=C\CCCCCCCC(=O)NC(C)c1ccccc1 (stereo not drawn) [drawing 7],Liver cholesterol,"liver cholesterol; experiment [II], control 3308",815 mg/100 g.
same,Serum cholesterol,"[1]; experiment [II], control 521",290 mg %
CCCCC/C=C\C/C=C\CCCCCCCC(=O)NC(CC)c1ccccc1 (stereo not drawn) [drawing 14],Liver cholesterol,"liver cholesterol; experiment [II], control 3308",1042 mg/100 g.
same,Serum cholesterol,"[1]; experiment [II], control 521",302 mg %
CCCCCCCC/C=C\CCCCCCCC(=O)NC(C)c1ccc(CC)cc1 (racemic),Liver cholesterol,"liver cholesterol; experiment [X], control 3293",1010 mg/100 g.
same,Serum cholesterol,"[1]; experiment [X], control 554",304 mg %
CC/C=C\C/C=C\C/C=C\CCCCCCCC(=O)NC(C)c1ccccc1C (stereo not drawn) [drawing 29],Liver cholesterol,"liver cholesterol; experiment [IV], control 3145",913 mg/100 g.
same,Serum cholesterol,"[1]; experiment [IV], control 595",222 mg %
CCCCC/C=C\C/C=C\CCCCCCCC(=O)NC(CC)c1ccc([N+](=O)[O-])cc1 (stereo not drawn),Liver cholesterol,"liver cholesterol; experiment [VIII], control 2652",980 mg/100 g.
same,Serum cholesterol,"[1]; experiment [VIII], control 472",331 mg %
CCCCCCCC/C=C\CCCCCCCC(=O)NC(C)c1ccc(CC)cc1 (stereo not drawn) [drawing 64],Liver cholesterol,"liver cholesterol; experiment [X], control 3293",841 mg/100 g.
same,Serum cholesterol,"[1]; experiment [X], control 554",254 mg %
CCCCC/C=C\C/C=C\CCCCCCCC(=O)NC(C)c1ccc(C)cc1 (stereo not drawn) [drawing 61],Liver cholesterol,"liver cholesterol; experiment [X], control 3293",820 mg/100 g.
same,Serum cholesterol,"[1]; experiment [X], control 554",228 mg %
CCCCC/C=C\C/C=C\CCCCCCCC(=O)NC(C)c1ccc(C)cc1 (stereo not drawn) [drawing 22],Liver cholesterol,"liver cholesterol; experiment [III], control not given",1047 mg/100 g.
same,Serum cholesterol,"[1]; experiment [III], control 471",237 mg %
CCCCCCCC/C=C\CCCCCCCC(=O)NC(Cc1ccccc1)c1ccccc1 (stereo not drawn) [drawing 33],Liver cholesterol,"liver cholesterol; experiment [V], control 2640",831 mg/100 g.
same,Serum cholesterol,"[1]; experiment [V], control 372",245 mg %
CCCCC/C=C\C/C=C\CCCCCCCC(=O)NC(C)c1ccc(Cl)c(Cl)c1 (stereo not drawn) [drawing 26],Liver cholesterol,"liver cholesterol; experiment [IV], control 3145",1000 mg/100 g.
same,Serum cholesterol,"[1]; experiment [IV], control 595",251 mg %
CCCCCCCC/C=C\CCCCCCCC(=O)NC(C)c1ccc(OC)cc1 (racemic),Liver cholesterol,"liver cholesterol; experiment [XI], control 3451",1210 mg/100 g.
same,Serum cholesterol,"[1]; experiment [XI], control 595",382 mg %
